Laboratory results published in US12054494B2, “Compound with anticancer activity” (KYOWA KIRIN CO., LTD., priority 2018, dated 2024).

How the values were obtained:
[1] = system: MYC mRNA expression in SU-DHL-4 cells; assay: Suppressive effect on MYC mRNA expression (qRT-PCR); format: cell-based; conditions: test compound 100 nmol/L, 6 hours
Description: Suppressive Effect on MYC mRNA Expression
SU-DHL-4 cells were cultured at 37° C. using a carbon dioxide gas incubator (95% air, 5% CO2) in RPMI1640 medium in which FBS in an amount to give a final concentration of 10 vol % and PS in an amount to give a final concentration of 1 vol % were added. The cells were passaged twice a week at a volume of 20-40 mL so as to maintain a cell concentration of 1×10^6 cells/mL or less.
The cultured SU-DHL-4 cells were seeded at 6×10^5 cells/well in a transparent 6-well plate (Code No. 140675, Thermo Fisher Scientific). After seeding, the cells were precultured at 37° C. in a carbon dioxide gas incubator for 18 to 25 hours. Next, a 0.1 mmol/L DMSO solution of the test compound was prepared, diluted so that the concentration will be 200 times the final concentration in the RPMI1640 medium containing the above FBS and PS, and 1/200 volume of the diluted solution was added to each well. At this time, the final concentration of DMSO was adjusted to be 0.1 vol %. After adding the test compound, the cells were cultured at 37° C. in a carbon dioxide gas incubator for 6 hours.
Then, the cells were collected by centrifugation and used for extraction of mRNA. mRNA extraction from cells was performed using Maxwell® 16 LEV simplyRNA Purification Kits (Code No. AS1270, Promega). The mRNA recovery protocol was performed according to the manufacturer's recommended protocol attached to the kit.
0.001 mg of the recovered mRNA was converted to cDNA by SuperScript IV VILO Master Mix with ezDNase Enzyme (Code No. 11766050, Thermo Fisher Scientific). The cDNA conversion was performed, according to the manufacturer's recommended protocol attached to the kit, in 0.020 mL of the reaction solution, and GeneAmp® PCR System 9700 (Applied Biosystems) was used. The cDNA-converted sample was diluted 10-fold by adding 0.180 mL of RNase Free Water (Code No. 10977-023, Thermo Fisher Scientific) and used for quantitative real-time polymerase chain reaction (qRT-PCR). For the calibration curve of qRT-PCR, 0.08 mL of RNase Free Water was added to a cDNA sample using DMSO as a test compound for 5-fold dilution. Further, two 5-fold dilutions were prepared stepwise, and these three samples were used as the calibration curve samples.
The following reagents were used for qRT-PCR: TaqMan Gene Expression Assays, Inventoried (Primer probe: Code No. 4331182, Thermo Fisher Scientific, Assay ID: (i) MYC: Hs00153408_m1, (ii) ACTB: Hs01060665_g1, (iii) GAPDH: Hs04420697_g1, (iv) HPRT1: Hs02800695_m1); 2X TaqManR Fast Universal PCR Master Mix, no AmpEraseR UNG (Master Mix: Code No. 4367846, Thermo Fisher Scientific).
Primer probe (0.001 mL), Master Mix (0.010 mL), water (0.004 mL) and the diluted cDNA sample (0.005 mL) were mixed, and qRT-PCR analysis was performed. For qRT-PCR analysis, QuantStudio 7 Flex (Thermo Fisher Scientific) or 7500 Fast Real-Time PCR (Applied Biosystems) was used to measure in Fast mode and analyze. The expression level of the MYC gene was determined by quantifying ACTB, GAPDH, and HPRT1 as housekeeping genes and correcting by the following formula to calculate the suppression rate of (%) of MYC mRNA expression when the test compound was allowed to act at a concentration of 100 nmol/L. Corrected MYC expression=A/B • A: MYC expression level • B: Geometric mean of expression levels of ACTB, GAPDH and HPRT1
Using the corrected values, the suppression rate of MYC expression for the wells to which […] was calculated by the following formula. Suppression rate of MYC expression (%)=100−C/D×100 • C: Corrected MYC expression level in a well containing test compound • D: Corrected MYC expression level in a well to which test compound was not added

[2] = Body weight in SU-DHL-4 subcutaneous transplant model; format: in vivo; conditions: 3 mg/kg intravenously 5 times a week for 2 weeks, male SCID mouse; for Body weight: mean of n=5
Description: (§1) 1×10^7 cells of DLBCL strain SU-DHL-4 (Code No. ACC 495, Deutsche Sammlung von Mikroorganismen and Zellkulturen GmbH) suspended in a 1:1 mixed solution of PBS and matrigel (CORNING Code No. 354234) were transplanted subcutaneously to the ventral side of a male SCID mouse. Eighteen days after the transplantation, the body weight and the tumor diameter were measured, the tumor volume was calculated by the following formula, and the mice were divided into two groups (n=5) so that the average tumor volume of each group was equal. E-workbook software (ID Business Solusions) was used for grouping and measurement. [Tumor volume (mm^3)]=[Tumor long diameter (mm)]×[Tumor short diameter (mm)]^2×0.5
The test was conducted in two groups, a vehicle administration group and a compound 1a administration group (compound administration group). To the compound 1a administration group, a solution of compound 1a dissolved in 30% DMSO/3% Tween 80/physiological saline so as to give a final concentration of 0.6 mg/mL was administered intravenously (tail vein) at 5 mL/kg (3 mg/kg) 5 times a week for 2 weeks. To the vehicle administration group, 30% DMSO/3% Tween 80/physiological saline was administered intravenously (tail vein) at 5 mL/kg on the same schedule as the compound 1a administration group. After the start of the test, body weight and tumor diameter were measured twice a week. The tumor volume on each measurement day was calculated by the above formula. The tumor growth rate (hereinafter referred to as V/V0) was calculated by dividing the tumor volume V on each measurement day by the tumor volume V0 on the test start day (Day 0). The T/C was calculated by dividing the average value (T) of V/V0 of each group by the average value (C) of the vehicle administration group.

[3] = system: SU-DHL-4 cells; assay: Inhibitory effect on cell viability (Cell Counting Kit-8); format: cell-based; conditions: Homo sapiens, 72 hours culture with test compound, concentration showing 90% inhibition rate of cell viability
Outline: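 IC90 corresponds to 90% loss of viability, measured as CCK-8 absorbance at 450 nm (2-3 h colour development). Compounds in 9 dilutions (0.1% DMSO) were applied for 72 h at 37° C to SU-DHL-4 lymphoma cells seeded at 2000/well in RPMI1640/10% FBS after 18-25 h preculture.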

[4] = system: DLBCL strain SU-DHL-4 subcutaneously transplanted tumor; assay: Antitumor effect on subcutaneous transplant model in SCID mouse; format: in vivo; conditions: 3 mg/kg intravenously 5 times a week for 2 weeks; male SCID mouse; versus vehicle administration group
Description: Antitumor Effect on Subcutaneous Transplant Model in SCID Mouse DLBCL Strain SU-DHL-4
as §1, with “[Tumor volume (mm^3)]=[Tumor long diameter (mm)]×[Tumor short diameter (mm)]^2×0.5” left out
The test was conducted in two groups, a vehicle administration group and a compound 1a administration group (compound administration group). […] After the start of the test, body weight and tumor diameter were measured twice a week. The tumor volume on each measurement day was calculated by the above formula. The tumor growth rate (hereinafter referred to as V/V0) was calculated by dividing the tumor volume V on each measurement day by the tumor volume V0 on the test start day (Day 0). The T/C was calculated by dividing the average value (T) of V/V0 of each group by the average value (C) of the vehicle administration group.

Compound: CCC(=O)N1c2ccccc2[C@H](Nc2ccc(C(=O)N3CC(C(=O)N[C@H]4CC[C@H](N[C@@H]5C[C@H](C)N(C(=O)CC)c6ccccc65)CC4)C3)cc2)C[C@@H]1C [Compound 8r, 1-(4-(((2S,4R)-2-Methyl-1-propionyl-1,2,3,4-tetrahydroquinolin-4-yl)amino)benzoyl)-N-((1R,4R)-4-(((2S,4R)-2-methyl-1-propionyl-1,2,3,4-tetrahydroquinolin-4-yl)amino)cyclohexyl)azetidine-3-carboxamide]
- Suppression rate of MYC mRNA expression [1]: 96.7%

Compound: CCC(=O)N1c2ccccc2[C@H](Nc2ccc(NC(=O)C#CCNC(=O)C3CCC(N[C@@H]4C[C@H](C)N(C(=O)CC)c5ccccc54)CC3)cc2)C[C@@H]1C (relative stereo) [Compound 8g, (1R,4r)-4-(((2S*,4R*)-2-Methyl-1-propionyl-1,2,3,4-tetrahydroquinolin-4-yl)amino)-N-(4-((4-(((2S,4R)-2-methyl-1-propionyl-1,2,3,4-tetrahydroquinolin-4-yl)amino)phenyl)amino)-4-oxobut-2-yn-1-yl)cyclohexane-1-carboxamide]
- Suppression rate of MYC mRNA expression [1]: 96.6%

Compound: CCC(=O)N1c2ccccc2[C@H](Nc2ccc(NC(=O)N3CCN(C(=O)C4CCC(N[C@@H]5C[C@H](C)N(C(=O)CC)c6ccccc65)CC4)CC3)cc2)C[C@@H]1C (stereo partly drawn) [Compound 7p, 4-((1R,4r)-4-(((2S,4R)-2-Methyl-1-propionyl-1,2,3,4-tetrahydroquinolin-4-yl)amino)cyclohexane-1-carbonyl)-N-(4-(((2S,4R)-2-methyl-1-propionyl-1,2,3,4-tetrahydroquinolin-4-yl)amino)phenyl)piperazine-1-carboxamide]
- Suppression rate of MYC mRNA expression [1]: 97.9%

Compound: CCC(=O)N1c2ccccc2[C@H](Nc2ccc(NC(=O)CCCC(=O)NC3CCC(N[C@@H]4C[C@H](C)N(C(=O)CC)c5ccccc54)CC3)cc2)C[C@@H]1C (stereo partly drawn) [Compound 7o, N^1-((1R,4r)-4-(((2S,4R)-2-Methyl-1-propionyl-1,2,3,4-tetrahydroquinolin-4-yl)amino)cyclohexyl)-N^5-(4-(((2S,4R)-2-methyl-1-propionyl-1,2,3,4-tetrahydroquinolin-4-yl)amino)phenyl)glutaramide]
- Suppression rate of MYC mRNA expression [1]: 97.4%

Compound: CCC(=O)N1c2ccccc2[C@H](Nc2ccc(C(=O)NCCNS(=O)(=O)c3ccc(N[C@@H]4C[C@H](C)N(C(=O)CC)c5ccccc54)cc3)cc2)C[C@@H]1C [Compound 4d, 4-{[(2S,4R)-2-Methyl-1-propionyl-1,2,3,4-tetrahydroquinolin-4-yl]amino}-N-{2-[(4-{[(2S,4R)-2-methyl-1-propionyl-1,2,3,4-tetrahydroquinolin-4-yl]amino}phenyl)sulfonamide]ethyl}benzamide]
- Suppression rate of MYC mRNA expression [1]: 98.3%

Compound: CCC(=O)N1c2ccccc2[C@H](Nc2ccc(C(=O)NCCCNC(=O)c3ccc(C4=N[C@@H](CC(=O)OCCCOC)c5nnc(C)n5-c5sc(C)c(C)c54)cc3)cc2)C[C@@H]1C [Compound 13h, 3-Methoxypropyl 2-((S)-2,3,9-trimethyl-4-(4-((3-(4-(((2S,4R)-2-methyl-1-propionyl-1,2,3,4-tetrahydroquinolin-4-yl)amino)benzamide)propyl)carbamoyl)phenyl)-6H-thieno[3,2-f][1,2,4]triazolo[4,3-a][1,4]diazepin-6-yl)acetate]
- Suppression rate of MYC mRNA expression [1]: 97.4%

Compound: CCC(=O)N1c2ccccc2[C@H](Nc2ccc(C(=O)NCCCNC(=O)c3ccc(N[C@@H]4C[C@H](C)N(C(=O)CC)c5ccccc54)cc3)cc2)C[C@@H]1C (single isomer, unassigned) [Compound 1a, N,N′-(Propane-1,3-diyl)bis(4-{[(2S*,4R*)-2-methyl-1-propionyl-1,2,3,4-tetrahydroquinolin-4-yl]amino}benzamide)]
- Weight loss (in words) [2]: no weight loss was observed
- Body weight ([2]; Day 0): 24.56 g
- Body weight ([2]; Day 3): 25.36 g
- Body weight ([2]; Day 7): 25.44 g
- Body weight ([2]; Day 10): 25.14 g
- Body weight ([2]; Day 14): 25.74 g
- Body weight ([2]; Day 18): 26.23 g
- IC90 [3]: 5.21 nM
- Antitumor effect on SU-DHL-4 subcutaneously transplanted tumor (in words) [4]: strong antitumor effect
